Test results published in US20260325533A1, “CDK INHIBITOR COMPOUNDS” (ALEKSIA THERAPEUTICS, INC., priority 2023, published 2026).
Read-outs that look alike come from different tables or passages of the source.

Tests used:
Format in all cases: biochemical
CDK2/CCNE1 = CDK2/CCNE1 (Homo sapiens, UniProt P24941); assay: CDK2 homogeneous time-resolved fluorescence (HTRF) kinase assay; details: CDK2/CCNE
Procedure, shortened: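 Compounds were titrated 11-point, half-log from typically 10 μM against 3 nM CDK2/cyclin E1 at 1 mM ATP, with a 20 min enzyme preincubation. Phosphorylation of 50 nM ULight-4E-BP1 peptide over 60 min at 23 °C was detected by europium anti-phospho antibody TR-FRET.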

CDK4/CCND3 = CDK4/CCND3 (Homo sapiens, UniProt P11802); assay: CDK4 homogeneous time-resolved fluorescence (HTRF) kinase assay; details: CDK4/CCND
Sequence of CDK4/CCND3 (P11802 whole entry): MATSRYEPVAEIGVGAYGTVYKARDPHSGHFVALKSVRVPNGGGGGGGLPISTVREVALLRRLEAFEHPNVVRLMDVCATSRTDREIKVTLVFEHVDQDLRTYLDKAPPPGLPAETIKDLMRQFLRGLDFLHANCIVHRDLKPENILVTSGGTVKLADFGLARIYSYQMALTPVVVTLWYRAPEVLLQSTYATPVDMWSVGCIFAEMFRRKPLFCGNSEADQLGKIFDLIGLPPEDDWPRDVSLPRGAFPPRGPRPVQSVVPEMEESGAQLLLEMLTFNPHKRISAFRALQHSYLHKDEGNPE
Sequence of CDK4/CCND3 (P30281 whole entry partner): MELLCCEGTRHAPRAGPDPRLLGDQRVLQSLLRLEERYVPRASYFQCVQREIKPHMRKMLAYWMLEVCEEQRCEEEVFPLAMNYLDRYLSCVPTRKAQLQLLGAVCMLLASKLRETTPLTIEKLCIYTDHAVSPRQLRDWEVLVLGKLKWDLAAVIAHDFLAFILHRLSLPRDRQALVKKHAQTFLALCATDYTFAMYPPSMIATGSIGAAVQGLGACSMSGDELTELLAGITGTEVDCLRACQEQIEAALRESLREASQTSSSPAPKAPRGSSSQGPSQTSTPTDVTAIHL
Procedure, shortened: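 Steps: compound plus 1.5 nM CDK4/CCND3, 20 min, 23 °C; add 1 mM ATP and 50 nM ULight-4E-BP1 (Thr37/46) peptide, 60 min; stop with 10 mM EDTA; add 2 nM Eu anti-phospho antibody, 60 min; read 665 nm. IC50 from 11-point half-log series starting 10 μM.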

CDK6/CCND1 = CDK6/CCND1 (Homo sapiens, UniProt Q00534); assay: CDK6 homogeneous time-resolved fluorescence (HTRF) kinase assay; details: CDK6/CCND
Sequence of CDK6/CCND1 (Q00534 whole entry): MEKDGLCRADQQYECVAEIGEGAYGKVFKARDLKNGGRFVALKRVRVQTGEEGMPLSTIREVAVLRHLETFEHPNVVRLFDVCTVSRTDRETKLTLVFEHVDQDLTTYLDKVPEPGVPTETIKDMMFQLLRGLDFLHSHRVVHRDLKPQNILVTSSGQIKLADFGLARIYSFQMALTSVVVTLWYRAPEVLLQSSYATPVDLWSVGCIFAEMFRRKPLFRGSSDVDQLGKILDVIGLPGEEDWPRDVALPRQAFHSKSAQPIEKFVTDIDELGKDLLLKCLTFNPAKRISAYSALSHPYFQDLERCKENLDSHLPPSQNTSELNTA
Sequence of CDK6/CCND1 (P24385 whole entry partner): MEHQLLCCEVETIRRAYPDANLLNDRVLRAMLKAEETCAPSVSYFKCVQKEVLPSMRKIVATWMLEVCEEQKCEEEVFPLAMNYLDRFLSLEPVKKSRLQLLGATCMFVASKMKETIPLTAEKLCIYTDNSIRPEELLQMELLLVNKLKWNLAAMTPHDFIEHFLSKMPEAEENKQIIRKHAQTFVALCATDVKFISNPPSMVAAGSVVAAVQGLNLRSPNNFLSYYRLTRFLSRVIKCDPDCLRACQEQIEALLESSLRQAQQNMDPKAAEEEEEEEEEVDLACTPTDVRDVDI
Procedure, shortened: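 Enzyme pre-incubated 20 min at 23 °C with compound, then reacted 60 min at 23 °C with 1 mM ATP and 50 nM ULight-4E-BP1 (Thr37/46) peptide; 1 nM enzyme, 1% DMSO. EDTA-stopped, Eu-anti-phospho antibody TR-FRET read (665 nm or 665/615 ratio); 11-point half-log titration from 10 μM gave IC50.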

CDK1/CCNB1 = CDK1/CCNB1 (Homo sapiens, UniProt P06493); assay: CDK1 homogeneous time-resolved fluorescence (HTRF) kinase assay; details: CDK1/CCNB
Sequence of CDK1/CCNB1 (P06493 whole entry): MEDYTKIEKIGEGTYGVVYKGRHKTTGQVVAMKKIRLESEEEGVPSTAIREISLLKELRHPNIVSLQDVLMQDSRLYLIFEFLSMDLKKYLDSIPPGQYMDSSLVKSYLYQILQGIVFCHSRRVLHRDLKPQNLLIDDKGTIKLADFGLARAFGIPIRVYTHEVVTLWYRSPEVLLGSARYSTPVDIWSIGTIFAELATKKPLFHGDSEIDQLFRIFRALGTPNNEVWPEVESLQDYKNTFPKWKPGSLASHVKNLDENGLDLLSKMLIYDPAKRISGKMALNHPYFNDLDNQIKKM
Sequence of CDK1/CCNB1 (P14635 whole entry partner): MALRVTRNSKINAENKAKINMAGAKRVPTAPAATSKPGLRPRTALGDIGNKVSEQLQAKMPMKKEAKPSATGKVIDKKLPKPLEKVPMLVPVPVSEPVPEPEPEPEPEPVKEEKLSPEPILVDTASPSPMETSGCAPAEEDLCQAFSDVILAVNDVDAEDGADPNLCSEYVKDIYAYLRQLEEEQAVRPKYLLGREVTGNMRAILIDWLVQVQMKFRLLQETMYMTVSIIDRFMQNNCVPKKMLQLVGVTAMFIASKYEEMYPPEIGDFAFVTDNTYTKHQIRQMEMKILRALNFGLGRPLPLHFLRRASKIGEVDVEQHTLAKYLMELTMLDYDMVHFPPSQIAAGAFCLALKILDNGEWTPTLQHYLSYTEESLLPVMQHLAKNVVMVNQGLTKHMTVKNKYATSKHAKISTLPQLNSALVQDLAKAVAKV
Procedure, shortened: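 High-ATP (1 mM) HTRF assay with 0.5 nM CDK1/cyclin B1 and 50 nM ULight-4E-BP1 (Thr37/46) substrate, 60 min at 23 °C after 20-min compound preincubation. IC50 values come from dose-response curves.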

[1] = >250 nM, read-out: CDK4/CCND IC50, >250 nM
[2] = >250 nM, read-out: CDK1/CCNB IC50 >250 nM
[3] = x = IC50 <25 nM, read-out: CDK2/CCNE IC50 (<25 nM)
[4] = x = IC50 >250 nM, read-out: CDK4/CCND IC50 (>250 nM column)
[5] = x = IC50 >250 nM, read-out: CDK6/CCND IC50 (>250 nM column)
[6] = x = IC50 >250 nM, read-out: CDK1/CCNB IC50 (>250 nM column)
[7] = x = IC50 25-250 nM, read-out: CDK2/CCNE IC50 (25-250 nM)

SMILES | IC50 (CDK2/CCNE1; [3]) [µM] | IC50 (CDK4/CCND3; [4]) [µM] | IC50 (CDK6/CCND1; [5]) [µM] | IC50 (CDK1/CCNB1; [6]) [µM] | other results
COc1cncc(C#Cc2nccc3cnc(Nc4ccc(S(C)(=O)=O)cc4)cc23)c1 [Ex 882, 5-((5-methoxypyridin-3-yl)ethynyl)-N-(4-(methylsulfonyl)phenyl)-2,6-naphthyridin-3-amine] |  |  |  |  | IC50 (CDK2/CCNE1; 25-250 nM, read-out: CDK2/CCNE IC50, 25-250 nM): 0.025 to 0.25 µM; IC50 (CDK4/CCND3; [1]): > 0.25 µM; IC50 (CDK6/CCND1; >250 nM, 1 mM ATP, read-out: CDK6/CCND IC50, >250 nM): > 0.25 µM; IC50 (CDK1/CCNB1; [2]): > 0.25 µM
Cc1c(-c2nccc3cnc(Nc4ccc(S(=O)(=O)C5CC5)cc4)cc23)ccc2c1cnn2CCO [Ex 662, 2-(5-(7-((4-(cyclopropylsulfonyl)phenyl)amino)-2,6-naphthyridin-1-yl)-4-methyl-1H-indazol-1-yl)ethan-1-ol] | < 0.025 |  |  |  | IC50 (CDK4/CCND3; x = IC50 25-250 nM, read-out: CDK4/CCND IC50 (25-250 nM)): 0.025 to 0.25 µM; IC50 (CDK6/CCND1; x = IC50 25-250 nM, read-out: CDK6/CCND IC50 (25-250 nM)): 0.025 to 0.25 µM; IC50 (CDK1/CCNB1; x = IC50 25-250 nM, read-out: CDK1/CCNB IC50 (25-250 nM)): 0.025 to 0.25 µM
CS(=O)(=O)N1CCC(Nc2cc3c(C4=CCOCC4)nccc3cn2)CC1 [Ex 87, 5-(3,6-dihydro-2H-pyran-4-yl)-N-(1-(methylsulfonyl)piperidin-4-yl)-2,6-naphthyridin-3-amine] |  |  |  |  | IC50 (CDK2/CCNE1; <25 nM, read-out: CDK2/CCNE IC50 <25 nM): < 0.025 µM; IC50 (CDK4/CCND3; 25-250 nM marked x, read-out: CDK4/CCND IC50 25-250 nM): 0.025 to 0.25 µM; IC50 (CDK6/CCND1; 25-250 nM marked x, read-out: CDK6/CCND IC50 25-250 nM): 0.025 to 0.25 µM; IC50 (CDK1/CCNB1; >250 nM marked x, read-out: CDK1/CCNB IC50 >250 nM): > 0.25 µM
Cc1cc(S(C)(=O)=O)ccc1Nc1cc2c(-c3ccc4c(cnn4CC(C)(C)O)c3C)nccc2cn1 [Ex 845, 2-methyl-1-(4-methyl-5-(7-((2-methyl-4-(methylsulfonyl)phenyl)amino)-2,6-naphthyridin-1-yl)-1H-indazol-1-yl)propan-2-ol] |  |  |  |  | IC50 (CDK2/CCNE1; <25 nM, read-out: CDK2/CCNE IC50, <25 nM): < 0.025 µM; IC50 (CDK4/CCND3; [1]): > 0.25 µM; IC50 (CDK6/CCND1; 25-250 nM, 1 mM ATP, read-out: CDK6/CCND IC50, 25-250 nM): 0.025 to 0.25 µM; IC50 (CDK1/CCNB1; [2]): > 0.25 µM
CS(=O)(=O)c1ccc(Nc2cc3c(C#Cc4cccn5ncnc45)nccc3cn2)cc1 [Ex 502, 5-([1,2,4]triazolo[1,5-a]pyridin-8-ylethynyl)-N-(4-(methylsulfonyl)phenyl)-2,6-naphthyridin-3-amine] |  | > 0.25 | > 0.25 | > 0.25 | IC50 (CDK2/CCNE1; [7]): 0.025 to 0.25 µM
CS(=O)(=O)c1ccc(Nc2cc3c(C#Cc4n[nH]c5ccccc45)nccc3cn2)cc1 [Ex 573, 5-((1H-indazol-3-yl)ethynyl)-N-(4-(methylsulfonyl)phenyl)-2,6-naphthyridin-3-amine] |  | > 0.25 | > 0.25 | > 0.25 | IC50 (CDK2/CCNE1; [7]): 0.025 to 0.25 µM
CCC1(CC)C(=O)Nc2cc(C#Cc3nccc4cnc(Nc5ccc(S(C)(=O)=O)cc5OC)cc34)ccc21 [Ex 396, 3,3-diethyl-6-((7-((2-methoxy-4-(methylsulfonyl)phenyl)amino)-2,6-naphthyridin-1-yl)ethynyl)indolin-2-one] | < 0.025 | > 0.25 | > 0.25 | > 0.25 | 

The next lines start with results.

IC50 (CDK2/CCNE1; [3]) [µM] | IC50 (CDK4/CCND3; [4]) [µM] | IC50 (CDK6/CCND1; [5]) [µM] | IC50 (CDK1/CCNB1; [6]) [µM] | SMILES | other results
< 0.025 | > 0.25 | > 0.25 | > 0.25 | Cc1c(C#Cc2nccc3cnc(Nc4ccc(S(C)(=O)=O)cc4)cc23)ccc2oc(=O)[nH]c12 [Example 472, 4-Methyl-5-((7-((4-(methylsulfonyl)phenyl)amino)-2,6-naphthyridin-1-yl)ethynyl)benzo[d]oxazol-2(3H)-one] | 
< 0.025 | > 0.25 | > 0.25 | > 0.25 | CS(=O)(=O)c1ccc(Nc2cc3c(C#Cc4cc5c(cc4F)C4(CC4)C(=O)N5)nccc3cn2)cc1 [Example 378, 5′-fluoro-6′-((7-((4-(methylsulfonyl)phenyl)amino)-2,6-naphthyridin-1-yl)ethynyl)spiro[cyclopropane-1,3′-indolin]-2′-one] | 
